Earlier results on 2 compounds are cited in patent publication US7858118B2, “Extended release composition containing Tramadol” (Galephar Pharmaceutical Research, Inc., priority 2001, dated 2010).

Molecules are shown by their SMILES. Where two headings read alike, the source gives them in different places.

Series [1] deals with μ-opioid receptors.
For series [2] the following is noted: animal models.
The conditions of series [3]: after oral administration of immediate release dosage form.
For series [4] the following is noted: in words.
Setting [5] is: single 100 mg oral dose, healthy subjects.

Turning to `CN(C)C[C@H]1CCCC[C@]1(O)c1cccc(O)c1` [Example M1, O-desmethyl tramadol], the “potency relative to Tramadol in u-opioid binding” value in series [1] is on record as 200 times. Further, the “potency relative to Tramadol in producing analgesia” value in series [2] is on record as “up to 6 times”.
Turning to `COc1cccc(C2(O)CCCCC2CN(C)C)c1` (stereo not shown) [Tramadol], the onset of analgesia in series [3] was ≤ 1 h. Besides, the “solubility in water and body fluids” value in series [4] was “extremely high solubility”. Moreover, where the note is “100 mg dose”, the “maximum plasma concentration of the [+]-enantiomer of Tramadol” value is 168 ± 36 ng/mL and the “maximum plasma concentration of the [−]-enantiomer of Tramadol” value was 148 ± 33 ng/mL. For the same compound, the “maximum plasma concentration of the [−]-M1 enantiomer” value (100 mg dose of Tramadol, first value of the pair) is 35 ± 10 ng/mL. In addition, the “maximum plasma concentration of the other M1 enantiomer (not given)” value (100 mg dose of Tramadol, second value of the pair) was 26 ± 13 ng/mL. Moreover, for the setting “100 mg four times daily”, the “maximum plasma concentration at steady state” value was 592 ± 177 ng/mL and the “time to steady state” value is listed as 2 days. In addition, the mean absolute bioavailability result (100 mg oral dose) is given as “≈ 75%”. Besides, the “time to peak plasma concentrations” value (immediate release, oral (b6)) is listed as “≈ 2 hours”. Further, the plasma half-life (multiple dosing) is 7 h. Under “oral, immediate release”, the “effect of food on rate or extent of absorption” value is recorded as “does not significantly affect”. Moreover, the “mean peak plasma concentration of the active mono-O-desmethyl metabolite” value (single 100 mg oral dose of Tramadol) is 55 ± 20 ng/mL. Also, the “time of peak plasma concentration of the mono-O-desmethyl metabolite” value (single 100 mg oral dose of Tramadol, post-dose) is reported as “≈ 3 hours”. In addition, under setting [5], the “mean peak plasma concentration of Tramadol” value is 308 ± 78 ng/mL and the “time of mean peak plasma concentration of Tramadol” value is given as “≈ 2 hours”. For the same compound, the plasma half-life (single dosing) was 6 h.
